Assay results published in patent US8252835B2, “Compounds and methods for treating estrogen receptor-related diseases” (Shenogen Pharma Group Ltd., priority 2006, dated 2012).

What was measured:
MCF7 cells [1] = assay: MCF7 surviving cell count (hemocytometer); conditions: for numbers of surviving MCF7 cells: 5 μM and up, two weeks, FIG. 5b
ER-α66 = target: T1, ER-α66 (Homo sapiens, UniProt P03372); assay: Western blot of ER-α66 expression in MCF7 cells; conditions: zero to 25 μM, 12 hours, FIG. 9
T1 sequence (P03372 1-595): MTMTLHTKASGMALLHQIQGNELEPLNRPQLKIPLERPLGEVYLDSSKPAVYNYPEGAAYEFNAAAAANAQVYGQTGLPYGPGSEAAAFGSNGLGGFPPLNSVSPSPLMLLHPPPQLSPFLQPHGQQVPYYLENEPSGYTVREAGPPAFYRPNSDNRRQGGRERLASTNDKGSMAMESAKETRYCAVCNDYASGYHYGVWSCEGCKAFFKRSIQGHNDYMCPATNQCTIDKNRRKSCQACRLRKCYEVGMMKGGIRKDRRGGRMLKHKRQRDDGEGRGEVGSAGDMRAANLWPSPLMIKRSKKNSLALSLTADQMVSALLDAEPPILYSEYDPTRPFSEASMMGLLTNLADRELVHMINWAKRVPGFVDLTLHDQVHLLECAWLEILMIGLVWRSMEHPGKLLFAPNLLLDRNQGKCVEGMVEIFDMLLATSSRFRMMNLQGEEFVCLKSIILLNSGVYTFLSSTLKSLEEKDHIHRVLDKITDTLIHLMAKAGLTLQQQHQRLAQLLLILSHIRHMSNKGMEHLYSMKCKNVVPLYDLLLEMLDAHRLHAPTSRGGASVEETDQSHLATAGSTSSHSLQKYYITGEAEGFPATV

ER-α46 = target: T2, ER-α46 (Homo sapiens, UniProt P03372); assay: Western blot of ER-α46 expression in MCF7 cells; conditions: zero to 25 μM, 12 hours, FIG. 9
T2 sequence (P03372 1-422 isoform P03372-3): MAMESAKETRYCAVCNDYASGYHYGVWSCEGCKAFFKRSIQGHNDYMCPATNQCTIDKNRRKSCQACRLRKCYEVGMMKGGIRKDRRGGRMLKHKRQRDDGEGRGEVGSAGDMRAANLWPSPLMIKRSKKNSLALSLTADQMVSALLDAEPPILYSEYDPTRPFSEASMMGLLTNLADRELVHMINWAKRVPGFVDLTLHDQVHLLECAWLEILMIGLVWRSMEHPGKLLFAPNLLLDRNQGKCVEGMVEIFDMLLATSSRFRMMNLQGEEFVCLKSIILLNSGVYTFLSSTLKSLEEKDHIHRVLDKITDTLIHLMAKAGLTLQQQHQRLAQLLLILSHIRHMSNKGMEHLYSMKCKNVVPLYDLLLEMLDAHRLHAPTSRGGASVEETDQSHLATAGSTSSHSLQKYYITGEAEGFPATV

ER-α36 = target: T3, ER-α36 (Homo sapiens, UniProt P03372); assay: Western blot of ER-α36 expression in MCF7 cells; conditions: zero to 25 μM, 12 hours, FIG. 9
T3 sequence (P03372 1-310 isoform P03372-4): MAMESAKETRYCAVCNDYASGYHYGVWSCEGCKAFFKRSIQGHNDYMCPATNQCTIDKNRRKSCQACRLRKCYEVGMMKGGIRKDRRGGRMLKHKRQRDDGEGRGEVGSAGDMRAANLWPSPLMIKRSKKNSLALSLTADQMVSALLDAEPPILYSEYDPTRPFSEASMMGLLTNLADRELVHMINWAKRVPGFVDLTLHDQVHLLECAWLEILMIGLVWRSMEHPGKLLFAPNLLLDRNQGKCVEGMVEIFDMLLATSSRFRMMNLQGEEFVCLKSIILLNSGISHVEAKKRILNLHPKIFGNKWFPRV

H226 Lung Cancer Cells = assay: H226 lung cancer surviving cell count; assay type: cell-based; conditions: 10 μM, FIG. 16
PC3 cells = assay: PC3 prostate cancer surviving cell count; assay type: cell-based; conditions: 10 μM, FIG. 16
[2] = Asthma attack induced by ovalbumin in guinea pigs; assay type: in vivo; conditions: for blood concentration of histamine / concentration of IgE in the blood: ELISA; for blood concentration of histamine: FIG. 19; for concentration of IgE in the blood: FIG. 20; for percentage of oxyphil cells in the blood: control about 9.9%, normal about 5.3%
Method: Guinea pigs of 250-300 g were provided by Beijing Haidian Xingwang Animal Farm. The guinea pigs were injected with 1 ml 10% ovalbumin (Sigma Cat. No. A5253) into abdomen once. On the 15th-17th day after the injection, the guinea pigs were given 1% aerosolized ovalbumin for about 20 seconds through nasal spray to induce asthma attack. The latent period before asthma attack calculated from after ovalbumin administration to the time when the guinea pigs collapsed with convulsion was measured.
On the 17th day after injection, the qualified guinea pigs were divided into 3 groups, the high dosage IC-163 group (4 mg/kg/day), the low dosage IC-163 group (1 mg/kg/day) and the control group. Each group consisted of 10 guinea pigs. A normal group consisting of 8 normal guinea pigs which had not been injected with any 10% ovalbumin was also tested. IC-163 was administered to the guinea pigs at 4 mg per kilogram of body weight per day (the high dosage group) or 1 mg per kilogram of body weight per day (the low dosage group) through muscle injection once a day for 6 days while the guinea pigs of the normal group and the control group were injected with saline water. On the 4th and 6th day of administering the drug, the guinea pigs were induced for asthma attack in the same way as above. The latent period before asthma attack was measured. If the latent period lasted longer than 5 minutes, the latent period was recorded as 5 minutes. On the 6th day, blood was drawn from the guinea pigs of the four groups to examine the percentage of oxyphil cells, the concentrations of histamine and IgE in the blood. The percentage of oxyphil cells was measured by counting the number of oxyphil cells in every 200 leukocytes under microscope. The concentrations of histamine and IgE were measured by double-antibody sandwich ELISA (Enzyme Linked Immunosorbent Assay).

[3] = system: Tamoxifen resistant MCF7 cells (MCF7/TAM); assay: Surviving cell count, Tamoxifen resistant MCF7 cells; conditions: 10 μM, FIG. 16
MDA-MB-231 cells = assay: MDA-MB-231 colony formation, crystal violet staining; assay type: cell-based; conditions: 10 days, FIG. 4
MCF7 cells [4] = assay: MCF7 colony formation; assay type: cell-based; conditions: 10 days, FIG. 5a
cell proliferation = conditions: background, literature; cited from earlier work
breast cancer cells = conditions: background, literature (Liu 2005; Wang 2004; Ye 2005); cited from earlier work
[5] = system: human endometrial cancer Hec1A cells; assay: MTT assay of Hec1A cell growth; assay type: cell-based; conditions: 24 hours
Method: Human endometrial cancer Hec1A cells (ATCC No.: HTB-112™) were subseeded in a 96-well culture plate at a concentration of 5×10^3 cells/well and were cultured in DMEM containing high glucose medium (HyClone, SH30022.01B). […] The cells then were incubated with 0.5 mg/ml 3-(4,5-dimethylthiazol-2-yl)-2,5-diphenyltetrazolium bromide (MTT) for 4 hours at 37° C. wherein the MTT was reduced to insoluble purple formazan by the active mitochondrial reductase enzymes in the living cells. Then the excessive liquid MTT was removed from the reaction mixture. 150 μl of DMSO was added to dissolve the purple formazan into a colored solution. The optical density of the colored solution was measured at 490 nm using a microplate reader.

[6] = high dosage 4 mg/kg/day, 6th day
[7] = low dosage 1 mg/kg/day, 6th day
[8] = zero to 25 μM, as concentration rose

For CC1(C)CCc2c(cc(O)c3c(=O)c(O)c(-c4ccc(O)cc4)oc23)O1 [Y4, 3,5-dihydroxy-2-(4-hydroxyphenyl)-8,8-dimethyl-9,10-dihydro-4H,8H-pyrano[2,3-f]chromen-4-one], the “numbers of surviving MCF7 cells” value (MCF7 cells [1]) was “significantly reduced”, the ER-α66 expression (ER-α66) was “greatly reduced” and the ER-α46 expression (ER-α46) was “greatly reduced”. The ER-α36 expression (ER-α36) was “greatly reduced”.
In the case of COc1ccc(-c2oc3c(CCC(C)(C)O)c(O)cc(O)c3c(=O)c2O)cc1 [IC 163, 3,5,7-trihydroxy-8-(3-hydroxy-3-methylbutyl)-2-(4-methoxyphenyl)-4H-chromen-4-one], the numbers of cells (H226 Lung Cancer Cells) is reported as “reduced”, the numbers of cells (PC3 cells) is reported as “reduced” and the “latent period before asthma attack extended in comparison with the control group” value ([2]; high dosage 4 mg/kg/day muscle injection, 4th day) is reported as 72.9%. For the same compound, the “latent period before asthma attack extended in comparison with the control group” value ([2]; high dosage 4 mg/kg/day muscle injection, 6th day) was 63.5%, the “blood concentration of histamine” value [2, 6] was “significantly reduce” and the “concentration of IgE in the blood” value [2, 6] was “significantly reduce”. For the same compound, the “percentage of oxyphil cells in the blood” value [2, 6] was “about 8.6%”, the “latent period before asthma attack extended in comparison with the control group” value ([2]; low dosage 1 mg/kg/day muscle injection, 4th day) was 83.4% and the “latent period before asthma attack extended in comparison with the control group” value ([2]; low dosage 1 mg/kg/day muscle injection, 6th day) was 72.7%. For the same compound, the “blood concentration of histamine” value [2, 7] was “significantly reduce”, the “concentration of IgE in the blood” value [2, 7] was “significantly reduce” and the “percentage of oxyphil cells in the blood” value [2, 7] was “about 7.8%”. The “numbers of surviving MCF7 cells” value (MCF7 cells [1]) was “significantly reduced”, the numbers of cells (MCF7 cells [1]; 10 μM, FIG. 16) was “reduced” and the ER-α66 expression (ER-α66) was “greatly reduced”. The ER-α46 expression (ER-α46) was “greatly reduced”, the ER-α36 expression (ER-α36) was “greatly reduced” and the numbers of cells [3] was “reduced”.
In the case of O=c1cc(-c2ccc(O)c(O)c2)oc2cc(O)cc(O)c12 [Luteolin], the “numbers of colonies of MDA-MB-231 cells” value (MDA-MB-231 cells; 5 μM) is reported as “decreased”, the “numbers of colonies of MDA-MB-231 cells” value (MDA-MB-231 cells; 40 μM) is reported as “dropped to near zero” and the “number of colonies of MCF7 cells” value (MCF7 cells [4]; [8]) is reported as “significantly reduced”.
In the case of COc1ccc(-c2oc3c(CC=C(C)C)c(O[C@@H]4O[C@H](CO)[C@@H](O)[C@H](O)[C@H]4O)cc(O)c3c(=O)c2O[C@@H]2O[C@@H](C)[C@H](O)[C@@H](O)[C@H]2O)cc1 [Icariin], the “effect on cell proliferation in vitro” value (cell proliferation) is listed as “no effect”.
In the case of C[C@]12CC[C@@H]3c4ccc(O)cc4C[C@@H](CCCCCCCCC[S+]([O-])CCCC(F)(F)C(F)(F)F)[C@H]3[C@@H]1CC[C@@H]2O (some centres unmarked) [ICI 182,780], the “numbers of colonies of MDA-MB-231 cells” value (MDA-MB-231 cells; 5 μM) is reported as “decreased”, the “numbers of colonies of MDA-MB-231 cells” value (MDA-MB-231 cells; 50 μM) is reported as “remained at a high level” and the “number of colonies of MCF7 cells” value (MCF7 cells [4]; 25 μM) is reported as “only a limited decrease”.
In the case of CC(C)=CCc1c(O)cc(O)c2c(=O)c(O)c(-c3ccc(O)cc3)oc12 [desmethylicaritin, reference compound], the “proliferation of breast cancer cells” value (breast cancer cells) is given as “significantly increase”.
In the case of CC/C(=C(\c1ccccc1)c1ccc(OCCN(C)C)cc1)c1ccccc1 [Tamoxifen], the “numbers of colonies of MDA-MB-231 cells” value (MDA-MB-231 cells; 5 μM) is reported as “decreased”, the “numbers of colonies of MDA-MB-231 cells” value (MDA-MB-231 cells; 10 μM) is reported as “reduced to near zero” and the “number of colonies of MCF7 cells” value (MCF7 cells [4]; [8]) is reported as “significantly reduced”. For the same compound, the “effect on the growth of Hec1A cells” value ([5]; concentrations below 3 μM) was “stimulating the growth” and the “optical density at 490 nm (MTT)” value ([5]; concentrations increased from 0.001 μM to 3 μM, FIG. 21) was “rose”.
